Results reported in US10770169B2, “Method of providing a treatment to a subject based on a dynamic pathway map” (THE REGENTS OF THE UNIVERSITY OF CALIFORNIA, priority 2010, dated 2020).
Read-outs that look alike come from different tables or passages of the source.

Test system: panel of 55 breast cancer cell lines
Test: Cell growth inhibition assay (Cell Titer Glo, 72 h, 9 doses; GI50, TGI, LC50)
Type: cell-based, human
Settings: Homo sapiens, read-out: GI50 (converted)

COC1=C2C[C@@H](C)C[C@H](OC)[C@H](O)[C@@H](C)/C=C(\C)[C@H](OC(N)=O)[C@@H](OC)/C=C\C=C(/C)C(=O)NC(=CC1=O)C2=O [Geldanamycin]
GI50 (600MPE cell line, censored GI50 values): 38.9 nM | GI50 (AU565, AU565 cell line, censored GI50 values): 51.3 nM | GI50 (AU565, cell line AU565): 51.3 nM | GI50 (BT-474, BT474 cell line, censored GI50 values): 14.5 nM | GI50 (BT-474, cell line BT474): 14.5 nM | GI50 (BT-483, BT483 cell line, censored GI50 values): 145 nM | GI50 (BT-483, cell line BT483): 145 nM | GI50 (BT-549, BT549 cell line, censored GI50 values): 5.5 nM | GI50 (BT-549, cell line BT549): 5.5 nM | GI50 (CAMA-1, CAMA1 cell line, censored GI50 values): 79.4 nM | GI50 (CAMA-1, cell line CAMA1): 79.4 nM | GI50 (HCC38, HCC38 cell line, censored GI50 values): 28.8 nM | GI50 (HCC38, cell line HCC38): 28.8 nM | GI50 (HCC70, HCC70 cell line, censored GI50 values): 93.3 nM | GI50 (HCC70, cell line HCC70): 93.3 nM | GI50 (HCC202, HCC202 cell line, censored GI50 values): 1.48 nM | GI50 (HCC202, cell line HCC202): 1.48 nM | GI50 (HCC1143, HCC1143 cell line, censored GI50 values): 81.3 nM | GI50 (HCC1143, cell line HCC1143): 81.3 nM | GI50 (HCC1187, HCC1187 cell line, censored GI50 values): 15.8 nM | GI50 (HCC1187, cell line HCC1187): 15.8 nM | GI50 (HCC1395, HCC1395 cell line, censored GI50 values): 61.7 nM | GI50 (HCC1395, cell line HCC1395): 61.7 nM | GI50 (HCC1419, HCC1419 cell line, censored GI50 values): 32.4 nM | GI50 (HCC1419, cell line HCC1419): 32.4 nM | GI50 (HCC1428, HCC1428 cell line, censored GI50 values): 31.6 nM | GI50 (HCC1428, cell line HCC1428): 31.6 nM | GI50 (HCC1500, HCC1500 cell line, censored GI50 values): 155 nM | GI50 (HCC1500, cell line HCC1500): 155 nM | GI50 (HCC1806, HCC1806 cell line, censored GI50 values): 75.9 nM | GI50 (HCC1806, cell line HCC1806): 75.9 nM | GI50 (HCC1937, HCC1937 cell line, censored GI50 values): 29.5 nM | GI50 (HCC1937, cell line HCC1937): 29.5 nM | GI50 (HCC1954, HCC1954 cell line, censored GI50 values): 7.24 nM | GI50 (HCC1954, cell line HCC1954): 7.24 nM | GI50 (HCC2185 cell line, censored GI50 values): 18.2 nM | GI50 (HCC3153 cell line, censored GI50 values): 67.6 nM | GI50 (LY2 cell line, censored GI50 values): 100 nM | GI50 (MCF7, MCF7 cell line, censored GI50 values): 240 nM | GI50 (MCF7, cell line MCF7): 240 nM | GI50 (MDA-MB-134-VI, MDAMB134VI cell line, censored GI50 values): 20.9 nM | GI50 (MDA-MB-175-VII, MDAMB175VII cell line, censored GI50 values): 17.8 nM | GI50 (MDA-MB-231, MDAMB231 cell line, censored GI50 values): 28.8 nM | GI50 (MDA-MB-231, cell line MDAMB231): 28.8 nM | GI50 (MDA-MB-361, MDAMB361 cell line, censored GI50 values): 25.7 nM | GI50 (MDA-MB-361, cell line MDAMB361): 25.7 nM | GI50 (MDA-MB-415, MDAMB415 cell line, censored GI50 values): 57.5 nM | GI50 (MDA-MB-415, cell line MDAMB415): 57.5 nM | GI50 (MDA-MB-436, MDAMB436 cell line, censored GI50 values): 148 nM | GI50 (MDA-MB-436, cell line MDAMB436): 148 nM | GI50 (MDA-MB-453, MDAMB453 cell line, censored GI50 values): 19.5 nM | GI50 (MDA-MB-453, cell line MDAMB453): 19.5 nM | GI50 (MDA-MB-468, MDAMB468 cell line, censored GI50 values): 27.5 nM | GI50 (MDA-MB-468, cell line MDAMB468): 27.5 nM | GI50 (SK-BR-3, SKBR3 cell line, censored GI50 values): 16.2 nM | GI50 (SK-BR-3, cell line SKBR3): 16.2 nM | GI50 (SUM52PE, SUM52PE cell line, censored GI50 values): 12 nM | GI50 (SUM52PE, cell line SUM52PE): 12 nM | GI50 (SUM149PT, SUM149PT cell line, censored GI50 values): 6.03 nM | GI50 (SUM149PT, cell line SUM149PT): 6.03 nM | GI50 (SUM185PE, SUM185PE cell line, censored GI50 values): 20 nM | GI50 (SUM185PE, cell line SUM185PE): 20 nM | GI50 (SUM1315MO2, SUM1315MO2 cell line, censored GI50 values): 38 nM | GI50 (SUM-159-PT, SUM159PT cell line, censored GI50 values): 6.31 nM | GI50 (SUM-159-PT, cell line SUM159PT): 6.31 nM | GI50 (UACC-812, UACC812 cell line, censored GI50 values): 12.3 nM | GI50 (UACC-812, cell line UACC812): 12.3 nM | GI50 (UACC-893, UACC893 cell line, censored GI50 values): 11 nM | GI50 (UACC-893, cell line UACC893): 11 nM | GI50 (ZR-75-1, ZR751 cell line, censored GI50 values): 117 nM | GI50 (ZR-75-1, cell line ZR751): 117 nM | GI50 (ZR-75-30, ZR7530 cell line, censored GI50 values): 7.08 nM | GI50 (ZR-75-30, cell line ZR7530): 7.08 nM | GI50 (ZR-75B, ZR75B cell line, censored GI50 values): 93.3 nM | GI50 (ZR-75B, cell line ZR75B): 93.3 nM | GI50 (cell line 600MPE): 38.9 nM | GI50 (cell line HCC2185): 18.2 nM | GI50 (cell line HCC3153): 67.6 nM | GI50 (cell line LY2): 100 nM | GI50 (cell line MDAMB134V): 20.9 nM | GI50 (cell line MDAMB175V): 17.8 nM | GI50 (cell line SUM1315MO): 38 nM
